Assay results reported in patent US9457087B2, “Stable crystal modifications of DOTAP chloride” (Merck Patent GmbH, priority 2004, dated 2016).

What was measured:
[1] = Storage stability of crystalline DOTAP chlorides (HPLC purity and content); type: physicochemical; settings: 25° C., 60% relative humidity, exclusion of air
Description: In order to determine the stability of crystalline DOTAP chlorides, the substances are stored together with comparative samples at 25° C. and 60% relative humidity with exclusion of air. The remaining content of DOTAP chloride is measured at periodic intervals and quoted in comparison to the initial value.
The purity and content of DOTAP chloride are determined by means of HPLC.

[2] = DSC principal phase transition temperatures of multilamellar liposomes in water; type: physicochemical; settings: heating cycles, lipid 0.1 g/ml, 1° C./min
Description: Differential scanning caliometry (DSC) measurements are carried out on multilamellar liposomes in water. Liposomes are prepared by the thin-film method from the calculated amounts of racemic or enantiomerically pure DOTAP chloride. The lipid concentration here is in each case 0.1 g/ml. Suitable amounts of these dispersions are then introduced into sealable aluminium crucibles and measured using a 204 Phoenix calorimeter (Netzsch, Seib, Germany). In each case, three successive heating/cooling runs from −50° C. to +20° C. are carried out at 1° C./min.
For all three DOTAP chloride variants, phase transition temperatures below 0° C. are found. For the cooling cycles, this is in each case at −23° C. to −24° C. Differences between racemic and enantiomerically pure DOTAP chloride are in each case evident in the heating cycles. […] (see FIG. 6).

[3] = Solubility in acetonitrile; type: physicochemical; settings: room temperature
[4] = Hygroscopicity at normal atmospheric humidity; type: physicochemical; settings: normal atmospheric humidity levels
[5] = storage under protective gas at −20° C.; guaranteed by manufacturer; cited from earlier work

CCCCCCCC/C=C\CCCCCCCC(=O)OCC(C[N+](C)(C)C)OC(=O)CCCCCCC/C=C\CCCCCCCC.[Cl-] (racemic) [(R,S)-DOTAP chloride crystalline type I, N,N,N-trimethyl-2,3-bis[[(9Z)-1-oxo-9-octadecenyl]oxy]-1-propanaminium chloride]
% by weight (content of DOTAP chloride) ([1]; exposure time 0 months): 98.6% | Area-% (HPLC purity) ([1]; exposure time 0 months): 100% | % by weight (content of DOTAP chloride) ([1]; exposure time 1 month): 97.% | Area-% (HPLC purity) ([1]; exposure time 1 month): 100.0% | % by weight (content of DOTAP chloride) ([1]; exposure time 2 months): 97.9% | Area-% (HPLC purity) ([1]; exposure time 2 months): 100.0% | % by weight (content of DOTAP chloride) ([1]; exposure time 3 months): 97.2% | Area-% (HPLC purity) ([1]; exposure time 3 months): 100.0% | % by weight (content of DOTAP chloride) ([1]; exposure time 6 months): 98.2% | Area-% (HPLC purity) ([1]; exposure time 6 months): 100.0% | % by weight (content of DOTAP chloride) ([1]; exposure time 12 months): 98.7% | Area-% (HPLC purity) ([1]; exposure time 12 months): 100.0%

CCCCCCCC/C=C\CCCCCCCC(=O)OC[C@@H](C[N+](C)(C)C)OC(=O)CCCCCCC/C=C\CCCCCCCC.[Cl-] [(2R)-DOTAP chloride]
endothermic phase transition temperature [2]: around −12.5 °C

CCCCCCCC/C=C\CCCCCCCC(=O)OCC(C[N+](C)(C)C)OC(=O)CCCCCCC/C=C\CCCCCCCC.[Cl-] (racemic) [racemate, N,N,N-trimethyl-2,3-bis[[(9Z)-1-oxo-9-octadecenyl]oxy]-1-propanaminium chloride]
endothermic phase transition temperature [2]: −17.5 °C | solubility in acetonitrile [3]: virtually insoluble

CCCCCCCC/C=C\CCCCCCCC(=O)OCC(C[N+](C)(C)C)OC(=O)CCCCCCC/C=C\CCCCCCCC.[Cl-] (stereo not drawn) [amorphous DOTAP chloride]
hygroscopicity [4]: extremely hygroscopic | shelf life [5]: about 6 months

CCCCCCCC/C=C\CCCCCCCC(=O)OC[C@H](C[N+](C)(C)C)OC(=O)CCCCCCC/C=C\CCCCCCCC.[Cl-] [(2S)-DOTAP]
endothermic phase transition temperature [2]: around −12.5 °C
